# Data published in patent US10287266B2, “Compounds and compositions for inhibiting the activity of SHP2” (NOVARTIS AG, priority 2015, dated 2019).
# Target: T1, SHP2 (Homo sapiens, UniProt Q06124)
# T1 sequence (Q06124 1-593): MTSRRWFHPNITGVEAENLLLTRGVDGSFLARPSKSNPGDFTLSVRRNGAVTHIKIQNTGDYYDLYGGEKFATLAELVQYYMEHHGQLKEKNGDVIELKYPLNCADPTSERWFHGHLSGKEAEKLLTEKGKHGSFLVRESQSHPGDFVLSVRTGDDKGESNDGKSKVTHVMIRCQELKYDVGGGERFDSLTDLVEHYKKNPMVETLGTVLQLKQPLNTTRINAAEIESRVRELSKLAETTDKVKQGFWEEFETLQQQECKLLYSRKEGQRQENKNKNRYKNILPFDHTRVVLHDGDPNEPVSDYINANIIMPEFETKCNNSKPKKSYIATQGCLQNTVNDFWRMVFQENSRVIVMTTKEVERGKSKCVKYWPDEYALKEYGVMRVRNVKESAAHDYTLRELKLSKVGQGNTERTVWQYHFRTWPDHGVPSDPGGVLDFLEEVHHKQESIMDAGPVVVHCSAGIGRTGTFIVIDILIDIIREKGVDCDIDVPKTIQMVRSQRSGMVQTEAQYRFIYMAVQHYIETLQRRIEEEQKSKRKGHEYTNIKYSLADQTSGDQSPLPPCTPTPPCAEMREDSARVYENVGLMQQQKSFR
# Assay: SHP2 Allosteric Inhibition Assay
# Assay type: biochemical
# Settings: 0.5 nM SHP2 activated with 0.5 μM peptide IRS1_pY1172(dPEG8)pY1222; surrogate substrate DiFMUP, prompt fluorescence, 25° C.
# Excerpt: SHP2 Allosteric Inhibition Assay
# SHP2 is allosterically activated through binding of bis-tyrosyl-phorphorylated peptides to its Src Homology 2 (SH2) domains. The latter activation step leads to the release of the auto-inhibitory interface of SHP2, which in turn renders the SHP2 protein tyrosine phosphatase (PTP) active and available for substrate recognition and reaction catalysis. The catalytic activity of SHP2 was monitored using the surrogate substrate DiFMUP in a prompt fluorescence assay format.
# After 30-60 minutes incubation at 25° C., the surrogate substrate DiFMUP (Invitrogen, cat# D6567) was added to the reaction and incubated at 25° C. for 30 minutes. […] The inhibitor dose response curves were analyzed using normalized IC50 regression curve fitting with control based normalization.
row,AC50 [µM],Compound
1,0.0247,C[C@@H]1OCC2(CCN(c3cnc(Sc4ccnc(N)c4Cl)cn3)CC2)[C@@H]1N [Example 115]
2,0.0451,C[C@@H]1OCC2(CCN(c3cnc(Sc4cccc(CO)c4)cn3)CC2)[C@@H]1N [Example 117]
3,0.0449,Cc1ccccc1Sc1cnc(N2CCC3(CCC[C@H]3N)CC2)cn1 [Example 121]
4,0.0185,C[C@@H]1OCC2(CCN(c3cnc(Sc4ccnc(C(F)(F)F)c4)cn3)CC2)[C@@H]1N [Example 122]
5,0.287,CCc1ccc(Sc2cnc(N3CCC4(CCC[C@@H]4N)CC3)cn2)cc1 [Example 128]
6,0.621,N[C@H]1CCCC12CCN(c1cnc(Sc3ccccc3)cn1)CC2 [Example 130]
7,1.46,CC(C)(C)c1ccccc1Sc1cnc(N2CCC3(CCC[C@@H]3N)CC2)cn1 [Example 131]

# Continued, compound first:
row,Compound,AC50 [µM]
1,C[C@@H]1OCC2(CCN(c3cnc(Sc4cccc(O)c4)cn3)CC2)[C@@H]1N [Example 118],0.057
2,CC(=O)c1cccc(Sc2cnc(N3CCC4(CCC[C@H]4N)CC3)cn2)c1 [Example 119],0.138
3,Cc1cccc(Sc2cnc(N3CCC4(CCC[C@@H]4N)CC3)cn2)c1 [Example 123],0.0758
4,CC(C)c1ccccc1Sc1cnc(N2CCC3(CCC[C@@H]3N)CC2)cn1 [Example 124],0.098
5,CCc1ccccc1Sc1cnc(N2CCC3(CCC[C@@H]3N)CC2)cn1 [Example 125],0.101
6,N[C@H]1CCCC12CCN(c1cnc(Sc3ccccc3OC(F)(F)F)cn1)CC2 [Example 126],0.13
7,CC(C)(C)c1cccc(Sc2cnc(N3CCC4(CCC[C@@H]4N)CC3)cn2)c1 [Example 127],0.0449
8,CCc1cccc(Sc2cnc(N3CCC4(CCC[C@H]4N)CC3)cn2)c1 [Example 129],0.526
9,CC(C)(C)c1ccc(Sc2cnc(N3CCC4(CCC[C@@H]4N)CC3)cn2)cc1 [Example 132],1.96
10,Nc1nccc(Sc2cnc(N3CCC4(CCC(CO)[C@H]4N)CC3)cn2)c1Cl (some centres unmarked) [Example 133],0.0146
